The values that follow come from a melting point compilation (Tetko et al.; mined from patent text by program, amines drawn as free bases though some values may be those of a salt).

A value given as a limit tells only on which side of the number the result lay.

`CC(C)(C)S(=O)(=O)c1cccc(-c2nc(=O)c3ccccc3s2)n1` yielded a melting point of 234 to 235 °C. Regarding `CNC1N=CN(c2c(Cl)cccc2Cl)C(=O)N1` (stereo unspecified), the melting point was found to be 270 °C. `NC[C@@H]1CN(c2nc3c(cc2F)c(=O)c(C(=O)O)cn3C2CC2)C[C@@H]1Cl` (relative stereo) came in with a melting point of 174 to 177 °C. In the case of `CC(=O)Nc1ccc(C=O)cc1Cl` it was 110 to 113 °C; in that of `COc1cc2c(cc1OC)-c1cc3ccccc3nc1CC2`, 55 to 56 °C; in that of `C[C@@H]1Oc2ccccc2C(=O)[C@H]1n1ccnc1` (relative stereo), 144 to 146 °C. The compound `CN1CCN(Cc2cc(N)cc(C(F)(F)F)c2)CC1` gave a melting point of 98 to 99 °C. `COc1ccc(S(=O)(=O)N2CCc3cccc(-c4ccc(N)cc4)c32)cc1` came in with a melting point of 184 to 186 °C.

For the compound `O=C(NCCCCCCO)OC1CCN(C(=O)OCc2ccccc2)CC1`, the melting point lay within 50 to 52 °C. `Cc1c(O)ccc(C(=O)c2ccccc2F)c1C` registered a melting point of 131 to 132 °C.

`C=CC[C@H]1CC(C(=O)OCC[Si](C)(C)C)=C[C@@H](OC(C)C)[C@@H]1NC(C)=O`: the melting point lay in the range of 64 to 65 °C. For the compound `c1ccc(Cn2c(-c3ccc4c(c3)OCCO4)nc3cccnc32)cc1`, the melting point lay within 156 to 158 °C. In turn, `O=C(O)CCCOc1cccc2c1Cc1sc(SCCC(c3ccccc3)c3ccccc3)nc1-2` returned a melting point of 86 to 88 °C. In the case of `CCN(Cc1cccs1)C(=O)C12CC3CC(CC(C3)C1)C2` it was 103 to 105 °C; in that of `Cn1cc(-c2ccccc2)c(=O)c(-c2cc(Cl)ccc2Cl)c1`, 156 °C; in that of `ON=C1CCC(C2CCCCC2)=C1c1ccc(F)cc1`, 173 to 176 °C. In turn, `CC(C)(C)OC(=O)n1c(C#N)ccc1-c1ccc2c(c1)C(C)(C)OC(=O)N2` had a melting point of 165 to 167 °C. With `Cc1ccnc2c1C(=O)CC(c1ccccc1Cl)C2` (stereo unspecified) the figure was 97 to 98 °C; with `O=c1oc2c(c(O)c1C(c1ccccc1)C1CC1)CCCCCCCCCC2` (stereo unspecified), 97.8 to 99 °C. The compound `Cc1c(Cc2cccnc2)sc2ccc(C(N)=O)cc12` had a melting point of 194 to 195 °C. With `Oc1ccc(Oc2cccc(Cl)n2)cc1` the figure was 125 to 130 °C. In the case of `CCCCCCCCCCCCCCOc1c(CBr)cccc1CBr` it was 59.3 to 59.8 °C. With `Cc1c(O[Si](C)(C)C(C)(C)C)cc(O[Si](C)(C)C(C)(C)C)c(C)c1C(=O)OCC(Cl)(Cl)Cl` the figure was 90 to 92 °C; with `CC(=O)OC(Cn1cncn1)(c1ccc(F)cc1F)C1(S(=O)(=O)Cl)CC1` (racemic), 163 to 165 °C.

Compound `CN(c1cc(OCC(=O)O)cc2cc(C3=NCC(CN4CCSCC4)S3)[nH]c12)S(=O)(=O)c1ccccn1` (stereo unspecified) gave a melting point of 132 to 134 °C. The compound `CCc1nc2nc3cc(Cl)ccc3nc2n1C(=O)c1ccccc1Br` registered a melting point of 130 to 132 °C.

`c1cnc2ccc(Cn3nnc4ccc(-c5cnn(C6CCNCC6)c5)nc43)cc2c1` yielded a melting point of 188 to 191 °C. In the case of `CC[C@H](C)CNC(=O)[C@@H](C[C@H](O)[C@H](CC1CCCCC1)NC(=O)[C@H](Cc1cscn1)NC(=O)[C@@H](CC(=O)N1CCOCC1)Cc1ccccc1)C(C)(C)O` it was 80 to 82 °C. With `CC(=O)OCC1OC(n2cc(C(Br)=CI)c(=O)[nH]c2=O)CC1OC(C)=O` (stereo unspecified) the figure was 82 to 84 °C. In the case of `C=CCc1cccc2c(=O)cc(-c3ccc(F)cc3)oc12`, the melting point lay in the range of 98 to 100 °C. In the case of `O=S(=O)(Cc1ccccc1)c1ccc(Cl)cc1` it was 148 °C. With `CC(C)NCCC(C(N)=O)c1ccccc1-c1ccccc1` (stereo unspecified) the figure was 92 to 95 °C; with `CC(C)c1cc(O)cc2c1C(=O)N(CCl)S2(=O)=O`, 149 to 150 °C; with `Cn1cnc2cc3[nH]c(-c4ccncc4)nc3cc21`, greater than 280 °C. With `CCOC(=O)c1cn(-c2ccc(C(F)(F)F)cn2)nc1C1CCCCC1` the figure was 99 to 100 °C. On to `CC(Cn1cnnn1)n1nnc2cc3c(=O)n(C)nnc3cc2c1=O` (stereo unspecified), for which the melting point was in the range of 228 to 230 °C.

`O=C(Nc1ccc(OCCN2CCOCC2)c2ccccc12)c1cc(F)cc(OC2CCCC2)c1` registered a melting point of 117 to 119 °C. In the case of `O=C(Nc1ccc(C(=O)N2Cc3cccn3Cc3ccccc32)cc1)c1sc2ccccc2c1Cl` it was 220 to 222 °C. In the case of `CCc1nn2ccc3c(c2c1C(C)CNC(C)=O)CCO3` (stereo unspecified) it was 151 to 153 °C; in that of `O=C(O)c1ccc(OCCn2ncc3nc(C(=O)NCc4cccc(OCCOc5nc[nH]n5)c4)[nH]c(=O)c32)cc1`, 176 to 178 °C. With `COc1ccc(C(=O)/C=C/c2ccc3c(c2)OCO3)c(OC)c1` the figure was 137 °C. Consider `CS(=O)(=O)c1ccc(-n2nc(CNC(=O)NC3CCCCCC3)cc2-c2ccccc2)cc1`, for which the melting point is 104 to 110 °C. With `Nc1nc(-n2cc(C(=O)O)c(=O)c3cc(F)c(NCC(O)CO)c(Cl)c32)c(F)cc1F` (stereo unspecified) the figure was 166 to 169 °C. In the case of `NC(=O)c1nc(C2CC2)nc(NCc2ccco2)c1Cl` it was 126 to 128 °C; in that of `O=C1CC(c2cccc(-n3cncn3)c2)=Nc2ccc(-c3ccc(F)cc3)cc2N1`, 241 to 245 °C; in that of `CC(C)(C)C(NC(=O)c1cccc(F)c1)Nc1c(Nc2cccnc2Cl)c(=O)c1=O` (stereo unspecified), 228 to 229 °C.

In turn, `COC(=O)c1ccc(NC(=O)c2ccccc2Cc2ccccc2)cc1` returned a melting point of 138 to 139 °C. Regarding `COC(=O)c1sc(Cl)cc1N`, the melting point is 99 to 101 °C.

In the case of `Fc1ccc(N2CCN(CCCNc3ccc(-n4ccnc4)cc3)CC2)cc1`, the melting point was 164 to 166 °C. In turn, `CC(C)NCCCCCCOc1ccc(OCc2ccccc2)cc1` displayed a melting point of 47 to 49 °C.

For the compound `COc1ccc(-c2cc(COCCc3cccc(NS(=O)(=O)C(F)(F)F)c3)ccc2F)cc1`, the melting point fell in the range of 70 to 71 °C.

`O=c1c2cccc3c2n(c(=O)n1CC(O)CO)-c1cc(C(F)(F)F)ccc1S3` (stereo unspecified): the melting point was in the range of 159 to 162 °C. With `CC(=O)OCCCN(C)CCN(C)C(=O)[C@@H]1CCCN1S(=O)(=O)c1ccc(Cl)c(COc2cccc3c(-n4ccnc4)cc(C)nc23)c1Cl` the figure was 75 °C; with `COc1ccc2nc(C)cc(NNC(=O)Nc3ccc(N(CCCl)CCCl)cc3)c2c1`, 184 to 186 °C. In the case of `Cc1ccc2c(c1)c(=O)[nH]c(=O)n2CCCCN1CCC(OC(c2ccccc2)c2ccccc2)CC1` it was 180 to 182 °C; in that of `CCOC(=O)CCCN(C(=O)CCC1CCCCC1)C1N=C(c2ccccc2)c2ccccc2N(C)C1=O` (stereo unspecified), 103 to 105 °C; in that of `Cc1nc(Cl)c(C)c(Cl)n1`, 46 to 47 °C. `CCOP(=O)(OCC)c1cc2c(c(C)c1-c1c(OC)ccc3ccccc13)COC2` showed a melting point of 136 to 138 °C. `Nc1nccc(Oc2ccc3c(C(=O)Nc4ccc(F)c(C(F)(F)F)c4)nsc3c2)n1` had a melting point of 237 to 239 °C.

In the case of `O=C1NC2CCCCN2C12CCNCC2` (stereo unspecified), the melting point was determined as 193 °C.

Regarding `CC(C)(N)CNC(=O)CNC(=O)CNC(=O)Cc1ccccc1`, the melting point fell in the range of 209 to 210 °C.
